Where a name gives a salt, the structure may show the parent alone. Each block holds one molecule with its values, some of them ahead of it.
What was measured:
[1] = target: T1, calcineurin (CaN; CnAα catalytic subunit) (Homo sapiens, UniProt Q08209); assay: malachite green phosphatase assay with RII phosphopeptide, absorbance dose-response, calmodulin present; assay type: biochemical
T1 construct: gene PPP3CA; recombinant human CaN, comprising CnAα and CnB subunits; with calcineurin B (CnB); calmodulin

[2] = target: T1, calcineurin (CaN; CnAα catalytic subunit); assay: malachite green phosphatase assay with RII phosphopeptide; assay type: biochemical

IC50 ([1]; read-out: IC50): 106 µM
SMILES: Fc1ccc(C(c2ccc(F)cc2)N2CCN(C/C=C/c3ccccc3)CC2)cc1 [LDN-0013905, flunarizine hydrochloride]

SMILES: CN1CCN(CCCN2c3ccccc3Sc3ccc(C(F)(F)F)cc32)CC1 [LDN-0013906, tri-fluoperazine dihydrochloride]
IC50 [1]: 4.5 µM

SMILES: O=C(O)[C@@H]1[C@H](C(=O)O)[C@H]2CC[C@@H]1O2 [endothall]
IC50 [2]: 12.6 µM

Source: PMC4503349 (PLoS ONE, 2015)
